Test results published in patent US9862717B2 (Merck Patent GmbH, priority 2014, dated 2018).

These compounds were tested against T1, CDK8/CycC (Homo sapiens, UniProt P49336) (assay: FRET based Lanthascreen binding competition assay for CDK8 inhibitory activity). Conditions: CDK8 co-expressed with CycC; class symbols; read-out: IC50.
T1 construct: purchased Invitrogen PV4402
Source text: Biochemical Assay for CDK8 Inhibitory Activity FRET based Lanthascreen binding competition assay: A dye-labeled ATP competitive probe served as a FRET acceptor upon binding to CDK8 labeled with a strepavidin -Eu-chelate (via a biotinylated anti His antibody). The result was a fluorescence signal at 647 nm. In case this probe was competed by an inhibitor, such a signal cannot be generated any more. The CDK8 used for this assay was a protein co-expressed with CycC. The assay procedure for an assay in a 1536 well plate was performed according to the following: 2 μL CDK8/biotin-anti-His Ab/SA-Eu mix in Assay buffer were pipetted into the wells of a micro plate. 1 μL compound in 20 mM Hepes buffer/5% DMSO was added. The plate was shaken for 30 sec and incubated for 20 min at RT. 2 μL Alexa647-probe in assay buffer were added. The plate was shaken for 30 sec again and incubated for 60 min at RT in the dark. Then the plate was read out on a Perkin Elmer Envision (mode LANCE/TRF, excitation 340 nm emission 650 nm). […] The readouts were fitted to IC50 curves using Genedata Condoseo.

T1 sequence (P49336 whole entry): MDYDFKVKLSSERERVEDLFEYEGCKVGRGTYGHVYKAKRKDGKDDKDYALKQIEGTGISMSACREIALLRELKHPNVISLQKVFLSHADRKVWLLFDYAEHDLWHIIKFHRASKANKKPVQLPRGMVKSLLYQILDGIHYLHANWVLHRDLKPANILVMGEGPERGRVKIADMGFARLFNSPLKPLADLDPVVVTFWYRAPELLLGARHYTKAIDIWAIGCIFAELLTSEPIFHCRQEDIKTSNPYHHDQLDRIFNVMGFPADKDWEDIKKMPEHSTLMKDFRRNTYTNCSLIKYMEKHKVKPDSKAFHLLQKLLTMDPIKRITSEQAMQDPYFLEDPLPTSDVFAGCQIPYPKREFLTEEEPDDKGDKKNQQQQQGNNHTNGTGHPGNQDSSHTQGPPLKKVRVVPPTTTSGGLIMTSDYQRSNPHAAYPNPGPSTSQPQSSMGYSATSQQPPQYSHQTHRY
T1 sequence (P24863 whole entry partner): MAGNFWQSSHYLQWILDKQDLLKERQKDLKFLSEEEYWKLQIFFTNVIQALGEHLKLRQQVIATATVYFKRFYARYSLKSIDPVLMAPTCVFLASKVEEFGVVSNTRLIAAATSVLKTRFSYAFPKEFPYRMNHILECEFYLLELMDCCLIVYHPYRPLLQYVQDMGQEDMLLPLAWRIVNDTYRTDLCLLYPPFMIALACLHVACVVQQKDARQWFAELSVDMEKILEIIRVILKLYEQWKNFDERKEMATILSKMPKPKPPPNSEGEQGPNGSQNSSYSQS

| SMILES | IC50 [µM] |
| --- | --- |
| CCCc1n[nH]c2ccc(C(=O)N3CCCC3c3ccc(Br)cc3)cc12 (racemic) [compound 4, [2-(4-Bromo-phenyl)-pyrrolidin-1-yl]-(3-propyl-1H-indazol-5-yl)-methanone] | < 0.01 |
| O=C(c1cnc2[nH]nc(C(F)(F)F)c2c1)N1CCCC1c1ccc(Cl)cc1 (racemic) [compound 177, [2-(4-Chloro-phenyl)-pyrrolidin-1-yl]-(3-trifluoromethyl-1H-pyrazolo[3,4-b]pyridin-5-yl)-methanone] | 0.01 to 0.1 |
| CC(C)c1ccc(C2CCCN2C(=O)c2ccc3[nH]nc(N)c3c2)cc1 (racemic) [compound 191, (3-Amino-1H-indazol-5-yl)-[2-(4-isopropyl-phenyl)-pyrrolidin-1-yl]-methanone] | 0.01 to 0.1 |
| CC(=O)N[C@@H]1CN(C(=O)c2ccc3[nH]nc(N)c3c2)C[C@H]1c1ccc(Cl)cc1 (racemic) [compound 263, N-[(3S,4R)-1-(3-Amino-1H-indazole-5-carbonyl)-4-(4-chloro-phenyl)-pyrrolidin-3-yl]-acetamide (racemic)] | 0.01 to 0.1 |
| CC(=O)N[C@@H]1CN(C(=O)c2cnc3[nH]nc(C)c3c2)C[C@H]1c1ccc(Cl)cc1 (racemic) [compound 264, N-[(3S,4R)-4-(4-Chloro-phenyl)-1-(3-methyl-1H-pyrazolo[3,4-b]pyridine-5-carbonyl)-pyrrolidin-3-yl]-acetamide (racemic)] | 0.01 to 0.1 |
| Nc1n[nH]c2ccc(C(=O)N3CCCCC3Cc3ccccc3)cc12 (stereo in doubt) [compound 86, (3-Amino-1H-indazol-5-yl)-((S)-2-benzyl-piperidin-1-yl)-methanone] | 0.01 to 0.1 |
| Nc1n[nH]c2ccc(C(=O)N3CCCCC3Cc3ccccc3)cc12 (stereo in doubt) [compound 89, (3-Amino-1H-indazol-5-yl)-((R)-2-benzyl-piperidin-1-yl)-methanone] | 0.1 to 1 |
| Cc1n[nH]c2ncc(C(=O)N3CC[C@H](C)C3c3ccc(C(F)(F)F)cc3)cc12 (stereo in doubt) [compound 171, (3-Methyl-1H-pyrazolo[3,4-b]pyridin-5-yl)-[(2S,3S)-3-methyl-2-(4-trifluoromethyl-phenyl)-pyrrolidin-1-yl]-methanone] | 0.01 to 0.1 |
| O=C(c1cnc2[nH]nc(C(F)(F)F)c2c1)N1CCC[C@H]1c1ccc(Cl)cc1 (stereo in doubt) [compound 180, [(S)-2-(4-Chloro-phenyl)-pyrrolidin-1-yl]-(3-trifluoromethyl-1H-pyrazolo[3,4-b]pyridin-5-yl)-methanone] | < 0.01 |
| O=C(c1cnc2[nH]nc(C(F)(F)F)c2c1)N1CCC[C@@H]1c1ccc(Cl)cc1 (stereo in doubt) [compound 181, [(R)-2-(4-Chloro-phenyl)-pyrrolidin-1-yl]-(3-trifluoromethyl-1H-pyrazolo[3,4-b]pyridin-5-yl)-methanone] | 0.1 to 1 |
| Cc1n[nH]c2ncc(C(=O)N3CCC(O)(c4ccccc4)C3)cc12 (stereo in doubt) [compound 199, ((R)-3-Hydroxy-3-phenyl-pyrrolidin-1-yl)-(3-methyl-1H-pyrazolo[3,4-b]pyridin-5-yl)-methanone] | 1 to 10 |
| Cc1n[nH]c2ncc(C(=O)N3CCC[C@H]3c3ccc(Br)cc3)cc12 [compound 2, [(S)-2-(4-Bromo-phenyl)-pyrrolidin-1-yl]-(3-methyl-1H-pyrazolo[3,4-b]pyridin-5-yl)-methanone] | < 0.01 |
| CCCc1n[nH]c2ccc(C(=O)N3CCC[C@@H]3c3ccc(Br)cc3)cc12 [compound 6, [(R)-2-(4-bromo-phenyl)-pyrrolidin-1-yl]-(3-propyl-1H-indazol-5-yl)-methanone] | 0.1 to 1 |
| CCCc1n[nH]c2ccc(C(=O)N3CCC[C@H]3c3ccc(Cl)cc3)cc12 [compound 11, [(S)-2-(4-Chloro-phenyl)-pyrrolidin-1-yl]-(3-propyl-1H-indazol-5-yl)-methanone] | < 0.01 |
| Cc1n[nH]c2ncc(C(=O)N3CCCC[C@H]3c3ccc(F)cc3)cc12 [compound 17, [(S)-2-(4-Fluoro-phenyl)-piperidin-1-yl]-(3-methyl-1H-pyrazolo[3,4-b]pyridin-5-yl)-methanone] | 0.01 to 0.1 |
| Cc1n[nH]c2ncc(C(=O)N3CCCCC3c3ccccc3)cc12 (centres unmarked) [compound 18, (3-Methyl-1H-pyrazolo[3,4-b]pyridin-5-yl)-(2-phenyl-piperidin-1-yl)-methanone] | 0.01 to 0.1 |

Results, then the compound that gave them:

| IC50 [µM] | SMILES |
| --- | --- |
| 0.01 to 0.1 | O=C(c1ccc2[nH]ncc2c1)N1CCCC1c1ccc(Br)cc1 (racemic) [compound 154] |
| < 0.01 | Cc1n[nH]c2ncc(C(=O)N3CCCC3c3ccc(C(C)C)cc3)cc12 (racemic) [compound 192, [2-(4-Isopropyl-phenyl)-pyrrolidin-1-yl]-(3-methyl-1H-pyrazolo[3,4-b]pyridin-5-yl)-methanone] |
| 1 to 10 | Cc1n[nH]c2ncc(C(=O)N3CCC(O)(c4ccccc4)C3)cc12 (racemic) [compound 193, (3-Hydroxy-3-phenyl-pyrrolidin-1-yl)-(3-methyl-1H-pyrazolo[3,4-b]pyridin-5-yl)-methanone] |
| < 0.01 | Cc1n[nH]c2ncc(C(=O)N3CCCC3c3ccc(Br)cc3)cc12 (centres unmarked) [compound 1, [2-(4-Bromo-phenyl)-pyrrolidin-1-yl]-(3-methyl-1H-pyrazolo[3,4-b]pyridin-5-yl)-methanone] |
| 0.1 to 1 | Cc1n[nH]c2ncc(C(=O)N3CCC[C@@H]3c3ccc(Br)cc3)cc12 [compound 3, [(R)-2-(4-Bromo-phenyl)-pyrrolidin-1-yl]-(3-methyl-1H-pyrazolo[3,4-b]pyridin-5-yl)-methanone] |
| < 0.01 | CCCc1n[nH]c2ccc(C(=O)N3CCC[C@H]3c3ccc(Br)cc3)cc12 [compound 5, [(S)-2-(4-Bromo-phenyl)-pyrrolidin-1-yl]-(3-propyl-1H-indazol-5-yl)-methanone] |
| < 0.01 | CCCc1n[nH]c2ccc(C(=O)N3CCCC3c3ccc(Cl)cc3)cc12 (centres unmarked) [compound 9, [2-(4-Chloro-phenyl)-pyrrolidin-1-yl]-(3-propyl-1H-indazol-5-yl)-methanone] |
| 0.1 to 1 | CCCc1n[nH]c2ccc(C(=O)N3CCC[C@@H]3c3ccc(Cl)cc3)cc12 [compound 12, [(R)-2-(4-Chloro-phenyl)-pyrrolidin-1-yl]-(3-propyl-1H-indazol-5-yl)-methanone] |
| 0.01 to 0.1 | Cc1n[nH]c2ncc(C(=O)N3CCCCC3c3ccc(F)cc3)cc12 (centres unmarked) [compound 15, [2-(4-Fluoro-phenyl)-piperidin-1-yl]-(3-methyl-1H-pyrazolo[3,4-b]pyridin-5-yl)-methanone] |

Same assay, conditions: IC50 [μM], CDK8 co-expressed with CycC; class symbols

| SMILES | IC50 [µM] |
| --- | --- |
| Cc1n[nH]c2ncc(C(=O)N3CCCC3c3ccc(Cl)cc3)cc12 (racemic) [compound 10, [2-(4-Chloro-phenyl)-pyrrolidin-1-yl]-(3-methyl-1H-pyrazolo[3,4-b]pyridin-5-yl)-methanone] | < 0.01 |
| Cc1n[nH]c2ncc(C(=O)N3CCC[C@H]3c3ccc(Cl)cc3)cc12 [compound 13] | < 0.01 |

Other lines, results leading:

| IC50 [µM] | SMILES |
| --- | --- |
| < 0.01 | Nc1n[nH]c2ccc(C(=O)N3CCCC3c3ccc(Cl)cc3)cc12 (racemic) [compound 78, (3-Amino-1H-indazol-5-yl)-[2-(4-chloro-phenyl)-pyrrolidin-1-yl]-methanone] |
| 0.1 to 1 | Cc1n[nH]c2ncc(C(=O)N3CCC[C@@H]3c3ccc(Cl)cc3)cc12 [compound 14, [(R)-2-(4-Chloro-phenyl)-pyrrolidin-1-yl]-(3-methyl-1H-pyrazolo[3,4-b]pyridin-5-yl)-methanone] |
